Test results as given in the supplement of paper PMC10307832.

Tests used:
Assay in all cases: relative viability (nuclei count vs DMSO), 5 days (fraction); higher = more cells survive
[1] = compound: CC1(C)CCC(CN2CCN(c3ccc(C(=O)NS(=O)(=O)c4ccc(NCC5CCOCC5)c([N+](=O)[O-])c4)c(Oc4cnc5[nH]ccc5c4)c3)CC2)=C(c2ccc(Cl)cc2)C1 [Venetoclax] + CC(=O)c1c(C)c2cnc(Nc3ccc(N4CCNCC4)cn3)nc2n(C2CCCC2)c1=O [Palbociclib] (partner 0.5 µM)
Outline: (§1)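 Lung cancer cell lines in 1536-well plates were dosed by pin tool the day after seeding, either with one drug alone or with a fixed anchor-drug dose plus five library-drug doses (not always all listed) in √10 steps. After 5 days, cells were fixed and their nuclei stained in one step (final 0.05% Triton X-100, 1% formaldehyde, 1 ug/ml Hoechst), then counted on 4× images. Relative viability is the nuclei count in treated wells divided by that in vehicle wells. Values are medians of duplicate plates.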

[2] = compound: Cn1cnc2c(F)c(Nc3ccc(Br)cc3Cl)c(C(=O)NOCCO)cc21 [Selumetinib] + CC(=O)c1c(C)c2cnc(Nc3ccc(N4CCNCC4)cn3)nc2n(C2CCCC2)c1=O [Palbociclib] (partner 0.5 µM)
Outline: as §1

[3] = compound: Cn1cnc2c(F)c(Nc3ccc(Br)cc3Cl)c(C(=O)NOCCO)cc21 [Selumetinib] + CS(=O)(=O)N1CCN(Cc2cc3nc(-c4cccc5[nH]ncc45)nc(N4CCOCC4)c3s2)CC1 [Pictilisib] (partner 1 µM)
Outline: as §1

[4] = compound: Cn1cnc2c(F)c(Nc3ccc(Br)cc3Cl)c(C(=O)NOCCO)cc21 [Selumetinib] + O=C(c1cc(Cc2n[nH]c(=O)c3ccccc23)ccc1F)N1CCN(C(=O)C2CC2)CC1 [Olaparib] (partner 8 µM)
Outline: as §1

Cell Line	relative viability ([1]; first compound 0.01 µM)	relative viability ([1]; first compound 0.03162 µM)	relative viability ([1]; first compound 0.3162 µM)	relative viability ([1]; first compound 1 µM)	relative viability ([2]; first compound 0.02 µM)	relative viability ([2]; first compound 0.06325 µM)	relative viability ([2]; first compound 0.2 µM)	relative viability ([2]; first compound 0.6325 µM)	relative viability ([3]; first compound 0.02 µM)	relative viability ([3]; first compound 0.06325 µM)	relative viability ([3]; first compound 0.2 µM)	relative viability ([3]; first compound 0.6325 µM)	relative viability ([4]; first compound 0.02 µM)	relative viability ([4]; first compound 0.06325 µM)	relative viability ([4]; first compound 0.2 µM)	relative viability ([4]; first compound 0.6325 µM)	relative viability ([1]; first compound 0.1 µM)
NCI-H520	0.236	0.217	0.204	0.201	0.211	0.236	0.237	0.258	0.293	0.24	0.31	0.292	0.331	0.349	0.363	0.3	–
NCI-H647	0.504	0.488	0.365	0.269	0.339	0.353	0.354	0.364	0.422	0.384	0.173	0.318	0.608	0.605	0.479	0.643	0.34
NCI-H650	0.319	0.387	0.366	0.303	0.395	0.571	0.516	0.521	1	0.912	0.887	0.993	0.478	0.514	0.47	0.526	0.345
NCI-H661	0.401	0.411	0.392	0.392	0.415	0.384	0.418	0.382	0.496	0.39	0.347	0.577	0.808	0.722	0.696	0.727	0.396
NCI-H727	0.655	0.586	0.82	0.651	0.473	0.517	0.489	0.423	0.309	0.214	0.155	0.234	0.665	0.558	0.383	0.431	0.658
NCI-H838	0.236	0.212	0.208	0.2	0.206	0.191	0.201	0.203	0.458	0.314	0.321	0.339	0.727	0.67	0.652	0.662	0.217
NCI-H1355	0.428	0.387	0.424	0.356	0.315	0.284	0.266	0.241	0.369	0.409	0.315	0.296	0.696	0.614	0.616	0.534	0.404
NCI-H1395	0.62	0.609	0.603	0.58	0.561	0.558	0.574	0.54	0.598	0.577	0.569	0.639	0.452	0.488	0.482	0.46	0.576
NCI-H1437	0.314	0.303	0.285	0.251	0.319	0.292	0.258	0.224	0.237	0.178	0.157	0.149	0.665	0.58	0.549	0.47	0.282
NCI-H1650	0.315	0.364	0.419	0.306	0.312	0.26	0.357	0.27	0.53	0.44	0.524	0.525	0.669	0.654	0.712	0.646	0.323
NCI-H1651	0.529	0.537	0.545	0.528	0.512	0.501	0.475	0.489	0.536	0.51	0.511	0.522	0.189	0.201	0.182	0.171	0.536
NCI-H1666	0.625	0.656	0.627	0.656	0.669	0.649	0.699	0.668	0.346	0.22	0.264	0.239	0.722	0.711	0.715	0.686	0.631
NCI-H1734	0.331	0.383	0.394	0.318	0.304	0.332	0.36	0.313	0.486	0.363	0.438	0.438	0.604	0.391	0.557	0.56	0.346
NCI-H1755	0.463	0.469	0.461	0.448	0.41	0.437	0.444	0.422	0.446	0.426	0.342	0.365	0.848	0.787	0.807	0.847	0.481
NCI-H1792	0.657	0.678	0.699	0.583	0.646	0.566	0.46	0.4	0.238	0.197	0.196	0.144	0.256	0.353	0.439	0.235	0.65
NCI-H1793	0.296	0.304	0.327	0.27	0.267	0.293	0.249	0.199	0.288	0.286	0.314	0.28	0.765	0.531	0.421	0.39	0.306
NCI-H1915	0.477	0.558	0.524	0.495	0.491	0.366	0.33	0.228	0.889	0.716	0.454	0.448	0.259	0.248	0.214	0.192	0.541
NCI-H1944	0.401	0.314	0.288	0.299	0.303	0.312	0.253	0.231	0.338	0.337	0.275	0.319	0.394	0.386	0.359	0.318	0.314

Cell Line	relative viability ([1]; first compound 0.01 µM)	relative viability ([1]; first compound 0.03162 µM)	relative viability ([1]; first compound 0.3162 µM)	relative viability ([1]; first compound 1 µM)	relative viability ([2]; first compound 0.02 µM)	relative viability ([2]; first compound 0.06325 µM)	relative viability ([2]; first compound 0.2 µM)	relative viability ([2]; first compound 0.6325 µM)	relative viability ([3]; first compound 0.02 µM)	relative viability ([3]; first compound 0.06325 µM)	relative viability ([3]; first compound 0.2 µM)	relative viability ([3]; first compound 0.6325 µM)	relative viability ([4]; first compound 0.02 µM)	relative viability ([4]; first compound 0.06325 µM)	relative viability ([4]; first compound 0.2 µM)	relative viability ([4]; first compound 0.6325 µM)	relative viability ([1]; first compound 0.1 µM)
NCI-H1975	0.667	0.672	0.515	0.534	0.517	0.509	0.467	0.388	0.259	0.242	0.211	0.204	0.799	0.88	0.658	0.582	0.506
NCI-H1993	0.643	0.652	0.616	0.541	0.592	0.557	0.527	0.427	0.945	0.815	0.866	0.807	1.16	0.808	0.876	0.795	0.717
NCI-H2009	0.264	0.228	0.216	0.203	0.15	0.136	0.122	0.143	0.614	0.355	0.266	0.221	0.775	0.6	0.608	0.316	0.258
NCI-H2023	0.382	0.338	0.329	0.33	0.355	0.299	0.304	0.339	0.211	0.186	0.198	0.223	0.555	0.467	0.454	0.487	0.349
NCI-H2085	0.441	0.471	0.454	0.47	0.464	0.462	0.415	0.355	0.449	0.374	0.356	0.365	0.704	0.771	0.689	0.671	0.486
NCI-H2087	0.257	0.257	0.249	0.188	0.197	0.168	0.144	0.0937	0.552	0.405	0.329	0.267	0.527	0.38	0.322	0.243	0.235
NCI-H2126	0.368	0.34	0.374	0.336	0.333	0.265	0.35	0.333	0.477	0.434	0.408	0.416	0.893	0.833	0.813	0.742	0.363
NCI-H2170	0.378	0.412	0.368	0.355	0.406	0.43	0.414	0.414	0.27	0.306	0.276	0.249	0.62	0.594	0.649	0.568	0.389
NCI-H2228	0.708	0.776	0.687	0.746	0.566	0.516	0.669	0.481	0.247	0.283	0.354	0.314	0.754	0.69	0.685	0.608	0.566
NCI-H2347	0.41	0.388	0.483	0.414	0.401	0.435	0.388	0.361	0.641	0.314	0.239	0.258	0.386	0.467	0.403	0.355	0.322
NCI-H2405	0.52	0.533	0.529	0.513	0.485	0.434	0.395	0.344	0.382	0.303	0.269	0.26	0.85	0.762	0.844	0.581	0.531
NCI-H3122	0.249	0.226	0.18	0.204	0.188	0.139	0.132	0.153	0.396	0.298	0.206	0.211	0.609	0.571	0.563	0.565	0.185
PC-3 [JPC-3]	0.561	0.533	0.558	0.517	0.484	0.566	0.515	0.571	0.711	0.718	0.456	0.503	1.03	1.07	0.992	0.854	0.583
PC-14	0.521	0.514	0.574	0.437	0.482	0.369	0.363	0.309	0.723	0.551	0.548	0.519	0.294	0.226	0.252	0.241	0.546
RERF-LC-KJ	1.05	1.08	1.03	1.03	1.03	0.946	0.84	0.908	0.527	0.476	0.44	0.504	0.878	0.896	0.889	0.892	0.988
SK-LU-1	0.405	0.403	0.403	0.372	0.381	0.353	0.362	0.263	0.618	0.493	0.459	0.258	0.467	0.459	0.401	0.335	0.35
SK-MES-1	0.329	0.336	0.326	0.286	0.304	0.322	0.315	0.264	0.324	0.266	0.196	0.233	0.728	0.779	0.695	0.599	0.327
SW 1573	0.337	0.422	0.36	0.362	0.337	0.294	0.365	0.312	0.366	0.427	0.342	0.386	0.479	0.403	0.368	0.437	0.377
